Results as given in patent US10201507B2, “Modulators of intracellular chloride concentration for treating fragile X syndrome” (NEUROCHLORE, priority 2012, dated 2019).
“Also recorded” adds a separate entry of the source.

Columns and labels:
CA3 pyramidal cells = assay: Single GABAA channel recordings of driving force of GABA (DFGABA) in hippocampal slices, drug applied to slice; assay type: cell-based, mouse
Protocol: Mice lacking Fmr1 (referred to as Fmr1^−/−) were bred in our animal facility. […] For all experiments, Fmr1^−/− mice were used with wild-type littermates as a control group. The offspring were used for experiments at E18, P0, P2, P4, P7, P9, P15 and P30. Experiments were carried out on offspring of either sex and in a blind manner at E18 and P0.
Experiments were performed on fetuses and neonatal wild type and Fragile X mice from the embryonic day […] to the postnatal day P38 (term is E21). All of the research was performed in compliance with the national guidelines on human care and use of laboratory animals and approved by INSERM.
Hippocampal slices (300-500 μm thick) were prepared using a Microm tissue slicer (International GmbH, Germany) as described previously (Tyzio et al., 2006, 2008). Slices were kept in oxygenated (95% O2/5% CO2) artificial cerebrospinal fluid (ACSF) of the following composition (in mM): NaCl 126, KCl 3.5, CaCl2 2.0, MgCl2 1.3, NaHCO3 25, NaH2PO4 1.2 and glucose 11 (pH 7.4) at room temperature (20-22° C.) at least 1 hour before use.
For recordings, slices were placed into a conventional fully submerged chamber superfused with ACSF at a rate of 2-3 ml/min at room temperature. Patch clamp recordings from visually identified CA3 pyramidal cells in cell-attached configuration were performed using EPC-10 amplifier (HEKA Elektronik Dr. Schulze GmbH, Lambrecht/Pfalz, Germany). Patch pipette solution for recordings of single GABAA channels contained (in mM): NaCl 120, KCl 5, TEA-Cl 20, 4-aminopyridine 5, CaCl2 0.1, MgCl2 10, glucose 10, Hepes-NaOH 10 buffered to pH 7.2-7.3 and GABA 2 μM. Analysis of currents through single channels and current-voltage relationships were performed using Clampfit 9.2 (Axon Instruments, Union City, Calif.). Recordings were digitized (10 kHz) online with Digidata-1200 interface card (Axon Instruments, Union City, Calif.) and analyzed offline with Axon package, MiniAnalysis (S (Synaptsoft, Decatur, Ga.), and Origin (Microcal Software, Northampton, Mass.). […]

[1] = system: hippocampal CA3 pyramidal neurons; assay: DFGABA in offspring at P15 after maternal pretreatment; assay type: in vivo, mouse
Protocol: Mice lacking Fmr1 (referred to as Fmr1^−/−) were bred in our animal facility. […] For all experiments, Fmr1^−/− mice were used with wild-type littermates as a control group. The offspring were used for experiments at E18, P0, P2, P4, P7, P9, P15 and P30. Experiments were carried out on offspring of either sex and in a blind manner at E18 and P0. Hippocampal slices (300-500 μm thick) were prepared using a Microm tissue slicer (International GmbH, Germany) as described previously (Tyzio et al., 2006, 2008). Slices were kept in oxygenated (95% O2/5% CO2) artificial cerebrospinal fluid (ACSF) of the following composition (in mM): […] For recordings, slices were placed into a conventional fully submerged chamber superfused with ACSF at a rate of 2-3 ml/min at room temperature. Patch clamp recordings from visually identified CA3 pyramidal cells in cell-attached configuration were performed using EPC-10 amplifier (HEKA Elektronik Dr. Schulze GmbH, Lambrecht/Pfalz, Germany). Patch pipette solution for recordings of single GABAA channels contained (in mM): NaCl 120, KCl 5, TEA-Cl 20, 4-aminopyridine 5, CaCl2 0.1, MgCl2 10, glucose 10, Hepes-NaOH 10 buffered to pH 7.2-7.3 and GABA 2 μM. Analysis of currents through single channels and current-voltage relationships were performed using Clampfit 9.2 (Axon Instruments, Union City, Calif.). […]

hippocampal slices = assay: Extracellular field potentials / spike frequency in hippocampal slices at P15 on isoguvacine; assay type: cell-based, mouse
Description: Recording were made in the hippocampal slices using tungsten wire electrodes (diameter: 50 μm, California Fine Wire, Grover Beach, Calif.) and a low-noise multichannel DAM-8A amplifiers (WPI, GB; […]; gain: ×1000). The signals were digitized using an analogue-to-digital converter (Digidata 1440A, Axon Instruments, USA). pCLAMP 10.1, Clampfit 10.1 (Axon Instruments, USA), MiniAnalysis 6.03 (Synaptosoft, Decatur, Calif.) and Origin 7.5 (Microcal Software, USA) programs were used for the acquisition and analysis of the synaptic activities. Sampling interval per signal was 100 microseconds (10 kHz).
To test whether depolarizing actions of GABA were associated with neuronal excitation, the effect of the GABAA receptor agonist isoguvacine was tested. […] To test whether maternal treatment with bumetanide before delivery switches the action of GABA from excitatory to inhibitory in offsprings at P15, pregnant females were treated orally 1 day before delivery with bumetanide (2-2.5 mg/kg in drinking water) and juvenile offspring neurons recorded at P15. […] Therefore, excitatory actions of GABA during delivery produce long term deleterious effects on electrophysiological parameters of FXS juvenile neurons. In FXS mice, GABAergic inputs are excitatory and contribute to hyperexcitability of the network. Bumetanide decreases [Cl^−]i and consequently reduces contribution of excitatory GABAergic inputs in the overall network activity.

Q: Which results are given for CCCCNc1cc(C(=O)O)cc(S(N)(=O)=O)c1Oc1ccccc1 [bumetanide]?
A: Effect on DFGABA (in words) (CA3 pyramidal cells; FXS neurons at P0 (birth), oxytocin 1 μM): shift it to hyperpolarization; also recorded: fully blocked the depolarising DFGABA; Effect on DFGABA (in words) (CA3 pyramidal cells; wild type pyramidal cells at P0): increases hyperpolarization; average DFGABA ([1]; P15 FXS mice, maternal pretreatment orally 1 day before delivery, 2-2.5 mg/kg in drinking water): 1.0±1.1 mV; Effect on DFGABA in offsprings (in words) ([1]; P15 FXS, maternal pretreatment): restored control DFGABA values; normalized spike frequency (hippocampal slices; FXS mice pretreated with bumetanide, P15, on isoguvacine (10 μM)): 80.8±8.2%; Effect on excitatory actions of isoguvacine (in words) (hippocampal slices; FXS offspring P15, maternal pretreatment): suppressed the excitatory actions
